These results are taken from patent publication EP0986381B1, “USE OF DITERPENES LIKE HYPOESTOXIDES FOR THE MANUFACTURE OF A MEDICAMENT FOR IMMUNOSUPPRESSION, ANTICANCER AND ANTIVIRAL TREATMENT” (Immune Modulation, Inc., priority 1997, dated 1998).

In series [1] the test system is human two-way mixed lymphocyte reaction (PBMCs from two individuals). The series can be described thus: Two-way mixed leukocyte reaction (MLR), 3H-thymidine incorporation. In kind it is cell-based. Here is the method: The MLR is an assay recognized by those skilled in the art as an in vitro predictor of in vivo immunosuppressant activity. The MLR is an in vitro model of T-cell recognition of foreign major histocompatibility complex (MHC) gene products and was used as a predictive test of cell-mediated graft rejection (Abbas, A.K., et al., eds, 1994, 2nd ed. Cellular and Molecular Immunology, W.B. Saunders Co., USA). Graft rejection is carried out by T cells that recognize MHC molecules and destroy the graft. This process can be studied in vivo, but in-depth analysis, especially in humans, required the development of tests such as the MLR as an in vitro correlate of graft rejection. (Janeway, Chas. and Travers, Paul, Immunobiology, 2nd Ed., Garland Publishing, Inc, New York (1996)). It is well known in the art that the MLR is induced by co-culturing mononuclear leukocytes from one individual with mononuclear leukocytes derived from another individual. If there are differences in the alleles of the MHC genes between the two individuals, a large proportion of the mononuclear cells will proliferate over a period of 4-7 days, and is referred to as allogeneic MLR. The level of proliferative response is measured by incorporation of ^3H-thymidine into DNA during cell replication. Because the cells from each donor react and proliferate against the other, the resultant response is known as a "two-way MLR". JO-4 was tested in the MLR for its ability to "immunosuppress".
Mononuclear cells (at 2 x 10^6/ml) of each donor were first mixed thoroughly together in a 50 ml tube at a 1:1 ratio with volume. […] Cells were harvested onto glass fiber filters (Packard, Downers Grove, IL) with a 96-well automatic cell harvester (TOMTEC, Hamden, CT) and were counted directly on a Matrix 9600 beta counter (Packard).
Data were expressed as percent inhibition (% Inhibition) according to the following formula: % Inhibition = 100 -((Counts per minute (CPM) for wells with drug x 100))/(CPM for wells without drug) [formula] […]
(Uptake of a labelled nucleoside into DNA is a usual measure of proliferation.)

The subject of the next series is HSV-2. The series is described as follows: In vitro HSV-2 replication assay, Hybriwix Probe Systems. It counts as cell-based, Herpes simplex virus. On the procedure:
The antiviral activity of the drug was determined using the Hybriwix™ Probe Systems (Herpes Antiviral Susceptibility Test kit: Diagnostic Hybrids, Inc., Athens, OH). Briefly, either HSV-1 or HSV-2 isolates (ATTC, Rockville, MD) were pre-adsorbed at 37°C and 5% CO2 in a humidified incubator for 60 minutes on African green monkey Kidney cells in a 24-well flat-bottom plate. Following pre-adsorption, the viral inoculum was removed and the growth medium containing various concentrations of appropriate drug was placed in appropriate wells. The culture was continued for 48 hours for the amplification of the virus. Quantification of the HSV DNA present in each well was determined by the nucleic acid hybridization method. The cells and/or virus were lysed with DNA wicking agent and the single-stranded DNA was immobilized on a Hybriwix™ filter by a vertical capillary absorption of the wicking agent/DNA solution. The amount of HSV target DNA from each well was determined using radioactive (I^125)-HSV DNA probe containing genetic sequences, which are homologous to HSV-1 or HSV-2 sequences. The amount of radioactivity present on the Hybriwix™ was dependent upon the amount of HSV DNA present after culture, and was determined in a gamma counter (Packard Instrument Co., Meriden, CT).

Series [2] can be described thus: Colorimetric MTT cytotoxicity assay, CV-1 cells. It counts as cell-based. Conditions: african green monkey, read-out: concentration giving cytotoxicity of greater than 50%. On the procedure:
Normal African green monkey kidney cells (CV-1): CV-1 cells from the Hybriwix™ Probe Systems: Herpes Antiviral Susceptibility Test kit (Diagnostic Hybrids, Inc., Athens, OH) were used for toxicity testing of JO-4A by MTT assay. Colorimetric MTT assay: Cytotoxic effects of drugs were determined in vitro by a colorimetric assay (Mosmann, T., J. Immunol. Methods, 65: 55-63, 1983). Briefly, 1000 cells per well (100 µl) in a 96-well flat-bottom plate were cultured either with the culture medium alone or with various concentrations of drug at 37°C, in a 5% CO2-95% air humidified incubator for 72 hours. At the end of the culture, 10 µl of 5 mg/ml sterile solution of 3-(4,5-Dimethylthiazol-2yl)-2,5-diphenyltetrazolium bromide (MTT) (Sigma Chemicals, Saint Louis, MO) in PBS was added per well and the incubation was resumed for an additional 4 hours. Acid-isopropanol (100 µl of 0.04 N HCl in isopropanol) was added to all wells and kept at room temperature for 30 minutes. Mixing with a multichannel pipetter dissolved the dark blue crystals and the absorbance was measured at 545-650 nm using an ELISA plate reader.

The inhibition is how much of the control response was suppressed. The term IC50 denotes the concentration that inhibits the measured activity by half. Turning to `C=C1C(=O)C[C@H]2C[C@@H]3O[C@@]3(C)CC[C@@H]3O[C@@]3(C)C[C@@H](OC(C)=O)[C@H]1C2(C)C` [JO-4, hypoestoxide], the “effect on two-way MLR” value in series [1] (JO-4 at 1.0, 0.5 or 0.25 µg/ml, 5 days) was “inhibited”. For the same compound, in the series on HSV-2 (Human alphaherpesvirus 2, 48 h, 3.125 µM, two days, African green monkey kidney cells), 3.125 µM produced 58% inhibition. In addition, in the series with HSV-2 (Human alphaherpesvirus 2, 48 h, 12.5 µM, two days, African green monkey kidney cells), at 12.5 µM the inhibition was 65%. For the same compound, the IC50 in the series with HSV-2 (Human alphaherpesvirus 2, 48 h, two days, African green monkey kidney cells, read-out: IC50 dose on HSV-1 inhibition (paragraph on HSV-2 replication)) is < 3.12 µM. In series [2], the CC50 at 72 h is > 50 µM.
In series [1] (Homo sapiens, Leukocyte, 120 h, 5 days), `C=C1C(=O)CC2CC3OC3(C)CCC3OC3(C)CC(O)C1C2(C)C` (stereo not drawn) [JO-4A] returned an IC50 of 5 to 10 µM. This compound also gave an inhibition at 10 µM in series [1] (Homo sapiens, Leukocyte, at 10.0 µM) of 64%. Moreover, the “replication and growth of HSV-2” value in the series with HSV-2 (African Green Monkey kidney cells) is “inhibited”. Further, the CC50 at 72 h in series [2] is ~25 µM.
